Experimental data reported in publication PMC10042540, “Targeting oncogenic KRasG13C with nucleotide-based covalent inhibitors” (eLife, 2023).

Legend:
SOS = experiment: Guanine nucleotide-exchange factor assay (mantdGDP fluorescence); assay type: biochemical; details: 5 µM KRas1-169, 10 µM mantdGDP, 0.25 or 0.5 µM SOS
Experimental: SOS-catalysed nucleotide exchange was monitored at 25 °C in a FluoroMax-3 spectrofluorometer (excitation at 360 nm, emission at 440 nm) in 20 mM HEPES (pH 7.5), 100 mM NaCl, 2 mM MgCl2, and 1 mM TCEP. 5 µM KRas1-169 was mixed with 10 µM mantdGDP and subsequently with different concentrations of SOS (0.25 µM and 0.5 µM) (Figure 3A; Figure 3—figure supplement 1).

[1] = system: Ras pathway (pcRaf, pAkt, pErk, pS6); experiment: Electroporation into HeLa cells, western blot of downstream signalling; assay type: cell-based, human; details: electroporation of 50-300 µg protein
Experimental: (§1) HeLa cells were obtained from the American Type Culture Collection (ATCC) and were cultured in DMEM medium (Gibco) supplemented with 10% fetal bovine serum (FBS) (PAN-Biotech) and 1% penicillin/streptomycin (Gibco). Cells were cultured in a humidified incubator at 37 °C in the presence of 5% CO2. The identity of the cells was validated by STR profiling and the cells were tested negative for mycoplasma contamination.
(§2) Electroporation of full-length KRas constructs (KRasWT, KRasG13C, KRasG13C-edaGDP, KRasG13C:acetyledaGDP and KRasG13C-edaGppCp) was performed based on the protocol described by [Alex et al., 2019] using the Neon Transfection System Kit (Thermo Fisher). For electroporation, 3 million cells per experiment were harvested by trypsinization, washed with PBS, and resuspended in 85 µL of the electroporation buffer R (Thermo Fisher). Increasing amounts of recombinant protein samples for each construct (0, 50, 100, 200 and 300 µg) were diluted 1:1 in buffer R followed by the addition of 30 µL of this protein master mix to the cell suspension. This cellular slurry was loaded into a […] Neon Pipette Tip (Thermo Fisher) and electroporated with 2x35 ms pulses at 1000 V. After electroporation, the cells were washed twice with PBS (15 mL) to remove non-internalized extracellular protein and the cell pellet was resuspended in 2 mL complete growth media. Cells were transferred into six-well tissue culture plates (Sarstedt) and incubated for 24 hr at 37 °C and 5% CO2 in a humidified incubator for recovery before being processed for western blotting analysis.
After recovery of the electroporation, cells were washed twice with ice-cold PBS and lysed in 100 µL of phosphatase and protease inhibitor containing RIPA buffer (Cell Signaling Technology). Cells were incubated on ice for 30 min and then harvested by scraping followed by centrifugation at 14,000 rpm for 10 min at 4 °C. Protein concentrations were determined using the Pierce BCA protein assay (Thermo) following the manufacturer’s recommended procedure. Equal amounts of protein (10 µg) were analyzed by SDS-PAGE and transferred to Immobilon-FL PVDF membranes (Merck Millipore) using Pierce 1-step transfer buffer (Thermo) and the Pierce Power Blotter (Thermo). Membranes were washed with ddH2O for 5 min, blocked with OdysseyBlocking Buffer TBS (Li-Cor) for 1 hr at room temperature and then incubated with primary antibodies diluted in OdysseyBlocking Buffer TBS overnight at 4 °C with gentle agitation. […] Quantification of protein levels from western blots was performed using Empiria Studio (Li-Cor) (Figure 3B, C, Figure 3—figure supplements 6–9).

pAktS473 = experiment: Electroporation into HeLa cells, western blot quantification; assay type: cell-based, human; details: for pAkt mean fold change: mean of cell lysates
Experimental: as §1, §2
(§3) After recovery of the electroporation, cells were washed twice with ice-cold PBS and lysed in 100 µL of phosphatase and protease inhibitor containing RIPA buffer (Cell Signaling Technology). Cells were incubated on ice for 30 min and then harvested by scraping followed by centrifugation at 14,000 rpm for 10 min at 4 °C. Protein concentrations were determined using the Pierce BCA protein assay (Thermo) following the manufacturer’s recommended procedure. Equal amounts of protein (10 µg) were analyzed by SDS-PAGE and transferred to Immobilon-FL PVDF membranes (Merck Millipore) using Pierce 1-step transfer buffer (Thermo) and the Pierce Power Blotter (Thermo). Membranes were washed with ddH2O for 5 min, blocked with OdysseyBlocking Buffer TBS (Li-Cor) for 1 hr at room temperature and then incubated with primary antibodies diluted in OdysseyBlocking Buffer TBS overnight at 4 °C with gentle agitation. KRas (Sigma Aldrich, SAB1404011-100UG), pcRafS338 (CST, 9427), tAkt1 (CST, 2938), pAktS473 (CST, 4060), tErk (CST, 4696), pErkT202/Y204 (CST, 4370), pS6S235/236 (CST, 4858), and β-actin (CST, 4970/Sigma-Aldrich, A5441) antibodies were used to detect the individual proteins. After primary antibody incubation, membranes were washed three times with TBS-T (50 mM Tris, 150 mM NaCl, 0.05% Tween 20, pH 7.4) for 5 min before being incubated with secondary antibodies (anti-mouse IgG (H+L) (DyLight 680 Conjugate) (CST, 5470) / anti-rabbit IgG (H+L) (DyLight 800 4 X PEG Conjugate) (CST, 5151)) diluted in OdysseyBlocking Buffer TBS for 1 hr at room temperature with gentle agitation. After secondary antibody incubation, the membranes were washed three times for 5 min with TBS-T and then scanned using an OdysseyCLx imaging system (Li-Cor). Quantification of protein levels from western blots was performed using Empiria Studio (Li-Cor) (Figure 3B, C, Figure 3—figure supplements 6–9).

pErkT202/Y204 = experiment: as above; assay type: cell-based, human; details: for pErk mean fold change: mean of cell lysates
Experimental: as §1, §2, §3

pS6S235/236 = experiment: as above; assay type: cell-based, human; details: for pS6 mean fold change: mean of cell lysates
Experimental: as §1, §2, §3

pcRafS338 = experiment: as above; assay type: cell-based, human; details: for pcRaf mean fold change: mean of cell lysates
Experimental: as §1, §2, §3

tAkt1 = experiment: as above; assay type: cell-based, human; details: for tAkt mean fold change: mean of cell lysates
Experimental: as §1, §2, §3

tErk = experiment: as above; assay type: cell-based, human; details: for tErk mean fold change: mean of cell lysates
Experimental: as §1, §2, §3

Substance: KRasG13C:acetyledaGDP: KRasG13C non-covalently loaded with acetyledaGDP, control
- SOS-catalysed nucleotide exchange (SOS): efficiently catalysed nucleotide exchange
- downstream signalling (pcRaf, pAkt, pErk, pS6) [1]: activation of the Ras pathway comparable to KRasG13C was observed
- pAkt fold change (pAktS473; 50 µg, Cell lysate 1): 0.68
- pAkt fold change (pAktS473; 50 µg, Cell lysate 2): 2.89
- pAkt fold change (pAktS473; 50 µg, Cell lysate 3): 3.02
- pAkt mean fold change (pAktS473; 50 µg): 2.20
- pAkt fold change (pAktS473; 100 µg, Cell lysate 1): 0.79
- pAkt fold change (pAktS473; 100 µg, Cell lysate 2): 4.04
- pAkt fold change (pAktS473; 100 µg, Cell lysate 3): 4.42
- pAkt mean fold change (pAktS473; 100 µg): 3.08
- pAkt fold change (pAktS473; 200 µg, Cell lysate 1): 1.19
- pAkt fold change (pAktS473; 200 µg, Cell lysate 2): 9.05
- pAkt fold change (pAktS473; 200 µg, Cell lysate 3): 6.20
- pAkt mean fold change (pAktS473; 200 µg): 5.48
- pAkt fold change (pAktS473; 300 µg, Cell lysate 1): 2.16
- pAkt fold change (pAktS473; 300 µg, Cell lysate 2): 13.30
- pAkt fold change (pAktS473; 300 µg, Cell lysate 3): 3.81
- pAkt mean fold change (pAktS473; 300 µg): 6.42
- pErk fold change (pErkT202/Y204; 50 µg, Cell lysate 1): 3.76
- pErk fold change (pErkT202/Y204; 50 µg, Cell lysate 2): 14.50
- pErk fold change (pErkT202/Y204; 50 µg, Cell lysate 3): 5.88
- pErk mean fold change (pErkT202/Y204; 50 µg): 8.05
- pErk fold change (pErkT202/Y204; 100 µg, Cell lysate 1): 5.77
- pErk fold change (pErkT202/Y204; 100 µg, Cell lysate 2): 17.10
- pErk fold change (pErkT202/Y204; 100 µg, Cell lysate 3): 6.22
- pErk mean fold change (pErkT202/Y204; 100 µg): 9.70
- pErk fold change (pErkT202/Y204; 200 µg, Cell lysate 1): 14.00
- pErk fold change (pErkT202/Y204; 200 µg, Cell lysate 2): 22.30
- pErk fold change (pErkT202/Y204; 200 µg, Cell lysate 3): 9.35
- pErk mean fold change (pErkT202/Y204; 200 µg): 15.22
- pErk fold change (pErkT202/Y204; 300 µg, Cell lysate 1): 17.00
- pErk fold change (pErkT202/Y204; 300 µg, Cell lysate 2): 29.30
- pErk fold change (pErkT202/Y204; 300 µg, Cell lysate 3): 10.30
- pErk mean fold change (pErkT202/Y204; 300 µg): 18.87
- pS6 fold change (pS6S235/236; 50 µg, Cell lysate 1): 1.20
- pS6 fold change (pS6S235/236; 50 µg, Cell lysate 2): 4.69
- pS6 fold change (pS6S235/236; 50 µg, Cell lysate 3): 4.24
- pS6 mean fold change (pS6S235/236; 50 µg): 3.38
- pS6 fold change (pS6S235/236; 100 µg, Cell lysate 1): 1.62
- pS6 fold change (pS6S235/236; 100 µg, Cell lysate 2): 7.62
- pS6 fold change (pS6S235/236; 100 µg, Cell lysate 3): 3.73
- pS6 mean fold change (pS6S235/236; 100 µg): 4.32
- pS6 fold change (pS6S235/236; 200 µg, Cell lysate 1): 3.38
- pS6 fold change (pS6S235/236; 200 µg, Cell lysate 2): 9.20
- pS6 fold change (pS6S235/236; 200 µg, Cell lysate 3): 7.24
- pS6 mean fold change (pS6S235/236; 200 µg): 6.61
- pS6 fold change (pS6S235/236; 300 µg, Cell lysate 1): 2.82
- pS6 fold change (pS6S235/236; 300 µg, Cell lysate 2): 9.13
- pS6 fold change (pS6S235/236; 300 µg, Cell lysate 3): 7.42
- pS6 mean fold change (pS6S235/236; 300 µg): 6.46
- pcRaf fold change (pcRafS338; 50 µg, Cell lysate 1): 8.73
- pcRaf fold change (pcRafS338; 50 µg, Cell lysate 2): 1.10
- pcRaf fold change (pcRafS338; 50 µg, Cell lysate 3): 15.70
- pcRaf mean fold change (pcRafS338; 50 µg): 8.51
- pcRaf fold change (pcRafS338; 100 µg, Cell lysate 1): 8.39
- pcRaf fold change (pcRafS338; 100 µg, Cell lysate 2): 1.51
- pcRaf fold change (pcRafS338; 100 µg, Cell lysate 3): 22.70
- pcRaf mean fold change (pcRafS338; 100 µg): 10.87
- pcRaf fold change (pcRafS338; 200 µg, Cell lysate 1): 13.70
- pcRaf fold change (pcRafS338; 200 µg, Cell lysate 2): 2.17
- pcRaf fold change (pcRafS338; 200 µg, Cell lysate 3): 32.40
- pcRaf mean fold change (pcRafS338; 200 µg): 16.09
- pcRaf fold change (pcRafS338; 300 µg, Cell lysate 1): 10.10
- pcRaf fold change (pcRafS338; 300 µg, Cell lysate 2): 3.88
- pcRaf fold change (pcRafS338; 300 µg, Cell lysate 3): 30.30
- pcRaf mean fold change (pcRafS338; 300 µg): 14.76
- tAkt fold change (tAkt1; 50 µg, Cell lysate 1): 0.92
- tAkt fold change (tAkt1; 50 µg, Cell lysate 2): 2.42
- tAkt fold change (tAkt1; 50 µg, Cell lysate 3): 1.53
- tAkt mean fold change (tAkt1; 50 µg): 1.62
- tAkt fold change (tAkt1; 100 µg, Cell lysate 1): 1.23
- tAkt fold change (tAkt1; 100 µg, Cell lysate 2): 2.03
- tAkt fold change (tAkt1; 100 µg, Cell lysate 3): 1.95
- tAkt mean fold change (tAkt1; 100 µg): 1.74
- tAkt fold change (tAkt1; 200 µg, Cell lysate 1): 1.36
- tAkt fold change (tAkt1; 200 µg, Cell lysate 2): 3.63
- tAkt fold change (tAkt1; 200 µg, Cell lysate 3): 1.80
- tAkt mean fold change (tAkt1; 200 µg): 2.26
- tAkt fold change (tAkt1; 300 µg, Cell lysate 1): 0.81
- tAkt fold change (tAkt1; 300 µg, Cell lysate 2): 4.18
- tAkt fold change (tAkt1; 300 µg, Cell lysate 3): 2.17
- tAkt mean fold change (tAkt1; 300 µg): 2.39
- tErk fold change (tErk; 50 µg, Cell lysate 1): 0.88
- tErk fold change (tErk; 50 µg, Cell lysate 2): 0.96
- tErk fold change (tErk; 50 µg, Cell lysate 3): 0.92
- tErk mean fold change (tErk; 50 µg): 0.92
- tErk fold change (tErk; 100 µg, Cell lysate 1): 0.68
- tErk fold change (tErk; 100 µg, Cell lysate 2): 0.93
- tErk fold change (tErk; 100 µg, Cell lysate 3): 0.86
- tErk mean fold change (tErk; 100 µg): 0.82
- tErk fold change (tErk; 200 µg, Cell lysate 1): 0.80
- tErk fold change (tErk; 200 µg, Cell lysate 2): 0.93
- tErk fold change (tErk; 200 µg, Cell lysate 3): 0.97
- tErk mean fold change (tErk; 200 µg): 0.90
- tErk fold change (tErk; 300 µg, Cell lysate 1): 0.62
- tErk fold change (tErk; 300 µg, Cell lysate 2): 0.90
- tErk fold change (tErk; 300 µg, Cell lysate 3): 1.12
- tErk mean fold change (tErk; 300 µg): 0.88
